Source: patent US10919916B2, “Boron-containing small molecules” (Bill & Melinda Gates Foundation, priority 2016, dated 2021)
In brackets after ≈: the same amount, converted by molar mass. Like-named read-outs stand apart in the source and are kept apart here.

Assays:
[1] = tested on: Staphylococcus aureus, MRSA (ATCC 33591); assay: Antibacterial MIC assay (microbroth dilution, CLSI); type: cell-based; details: read-out: MIC Staphylococcus aureus, MRSA (ATCC 33591)
Text: (§1) All MIC testing of bacteria followed the Clinical and Laboratory Standards Institute (CLSI) guidelines for antimicrobial testing of aerobic bacteria (Methods for Dilution Antimicrobial Susceptibility Tests for Bacteria that Grow Aerobically; Approved Standard—Tenth Edition, M07-A10; Performance Standards for Antimicrobial Susceptibility Testing; Twenty-fifth Informational Supplement, M100-S25).
(§2) Briefly, the microbroth dilution MIC method was used to quantitatively measure the in vitro antibacterial activity of a compound against a given bacterial isolate. The following bacterial strains were evaluated: Staphylococcus aureus, MRSA (ATCC 33591) and Streptococcus pneumoniae (ATCC 49619). Bacteria were grown in cation-adjusted Mueller-Hinton broth, with additions as required per species growth requirements (e.g. 3% lysed horse blood for fastidious organisms such as S. pneumoniae). A direct colony suspension in saline was prepared from colonies on an overnight agar plate to achieve a turbidity equivalent to 0.5 McFarland standard, which was subsequently diluted into the assay plate to achieve 5×10^5 CFU/mL. Assays plates were prepared by 2-fold dilution of compound across the plate and included a positive growth control.

[2] = tested on: Streptococcus pneumoniae (ATCC 49619); assay: as above; type: cell-based
Text: as §1
as §2, with “The following bacterial strains were evaluated: Staphylococcus aureus, MRSA (ATCC 33591) and Streptococcus pneumoniae (ATCC 49619).” left out

[3] = ATCC49619, read-out: MIC Streptococcus pneumoniae (ATCC 49619)
[4] = microbroth dilution, cation-adjusted Mueller-Hinton broth, 35° C. for 16-20 hours
[5] = ATCC49619, microbroth dilution, 3% lysed horse blood, 35° C. for 16-20 hours, read-out: MIC Streptococcus pneumoniae (ATCC 49619)

Row | Structure (SMILES) | MIC [1] [µg/mL] | MIC [2, 3] [µg/mL] | MIC [1, 4] [µg/mL] | MIC [2, 5] [µg/mL]
1 | C=C[C@]1(C)C[C@@H](OC(=O)COc2ccc3c(c2)B(O)N(C(=O)OC(C)(C)C)N=C3)[C@]2(C)[C@H](C)CC[C@]3(CCC(=O)[C@H]32)[C@@H](C)[C@@H]1O [Compound 71, tert-butyl 1-hydroxy-7-(2-(((3aR,4R,5R,7S,8S,9R,9aS,12R)-8-hydroxy-4,7,9,12-tetramethyl-3-oxo-7-vinyldecahydro-4,9a-propanocyclopenta[8]annulen-5-yl)oxy)-2-oxoethoxy)benzo[d][1,2,3]diazaborinine-2(1H)-carboxylate] | < 0.25 | < 0.25 |  | 
2 | C=C[C@]1(C)C[C@@H](OC(=O)COc2cc(F)c3c(c2)B(O)OC3)[C@]2(C)[C@H](C)CC[C@]3(CCC(=O)[C@H]32)[C@@H](C)[C@@H]1O [Compound 4, (3aR,4R,5R,7S,8S,9R,9aS,12R)-8-hydroxy-4,7,9,12-tetramethyl-3-oxo-7-vinyldecahydro-4,9a-propanocyclopenta[8]annulen-5-yl 2-((4-fluoro-1-hydroxy-1,3-dihydrobenzo[c][1,2]oxaborol-6-yl)oxy)acetate] | < 0.25 | 0.5 to 2 (≈ 0.946 to 3.78 µM) |  | 
3 | C=C[C@]1(C)C[C@@H](OC(=O)C[S@@+]([O-])c2ccc3c(c2F)B(O)OC3)[C@]2(C)[C@H](C)CC[C@]3(CCC(=O)[C@H]32)[C@@H](C)[C@@H]1O [Compound 67, (3aR,4R,5R,7S,8S,9R,9aS,12R)-8-hydroxy-4,7,9,12-tetramethyl-3-oxo-7-vinyldecahydro-4,9a-propanocyclopenta[8]annulen-5-yl 2-((R)-(7-fluoro-1-hydroxy-1,3-dihydrobenzo[c][1,2]oxaborol-6-yl)sulfinyl)acetate] | < 0.25 | 0.5 to 2 (≈ 0.892 to 3.57 µM) |  | 
4 | C=C[C@]1(C)C[C@@H](OC(=O)COc2cc(C)c3c(c2)B(O)OC3)[C@]2(C)[C@H](C)CC[C@]3(CCC(=O)[C@H]32)[C@@H](C)[C@@H]1O [Compound 11, (3aR,4R,5R,7S,8S,9R,9aS,12R)-8-hydroxy-4,7,9,12-tetramethyl-3-oxo-7-vinyldecahydro-4,9a-propanocyclopenta[8]annulen-5-yl 2-((1-hydroxy-4-methyl-1,3-dihydrobenzo[c][1,2]oxaborol-6-yl)oxy)acetate] | < 0.25 | < 0.25 |  | 
5 | C=C[C@]1(C)C[C@@H](OC(=O)COc2ccc3c(c2)NB(C)C=C3)[C@]2(C)[C@H](C)CC[C@]3(CCC(=O)[C@H]32)[C@@H](C)[C@@H]1O [Compound 104, (3aR,4R,5R,7S,8S,9R,9aS,12R)-8-hydroxy-4,7,9,12-tetramethyl-3-oxo-7-vinyldecahydro-4,9a-propanocyclopenta[8]annulen-5-yl 2-((2-methyl-1,2-dihydrobenzo[e][1,2]azaborinin-7-yl)oxy)acetate] |  |  | < 0.25 | 0.5 to 2 (≈ 0.962 to 3.85 µM)
6 | C=C[C@]1(C)C[C@@H](OC(=O)COc2ccc3c(c2F)B(O)OC3)[C@]2(C)[C@H](C)CC[C@]3(CCC(=O)[C@H]32)[C@@H](C)[C@@H]1O [Compound 2, (3aR,4R,5R,7S,8S,9R,9aS,12R)-8-hydroxy-4,7,9,12-tetramethyl-3-oxo-7-vinyldecahydro-4,9a-propanocyclopenta[8]annulen-5-yl 2-((7-fluoro-1-hydroxy-1,3-dihydrobenzo[c][1,2]oxaborol-6-yl)oxy)acetate] | < 0.25 | 0.5 to 2 (≈ 0.946 to 3.78 µM) |  | 
7 | C=C[C@]1(C)C[C@@H](OC(=O)COc2ccc3c(c2)B(O)NN=C3)[C@]2(C)[C@H](C)CC[C@]3(CCC(=O)[C@H]32)[C@@H](C)[C@@H]1O [Compound 72, (3aR,4R,5R,7S,8S,9R,9aS,12R)-8-hydroxy-4,7,9,12-tetramethyl-3-oxo-7-vinyldecahydro-4,9a-propanocyclopenta[8]annulen-5-yl 2-((1-hydroxy-1,2-dihydrobenzo[d][1,2,3]diazaborinin-7-yl)oxy)acetate] | < 0.25 | < 0.25 |  | 
8 | C=C[C@]1(C)C[C@@H](OC(=O)COc2ccc3c(c2)B(O)N(C(C)=O)N=C3)[C@]2(C)[C@H](C)CC[C@]3(CCC(=O)[C@H]32)[C@@H](C)[C@@H]1O [Compound 87, (3aR,4R,5R,7S,8S,9R,9aS,12R)-8-hydroxy-4,7,9,12-tetramethyl-3-oxo-7-vinyldecahydro-4,9a-propanocyclopenta[8]annulen-5-yl 2-((2-acetyl-1-hydroxy-1,2-dihydrobenzo[d][1,2,3]diazaborinin-7-yl)oxy)acetate] | < 0.25 | < 0.25 |  | 
9 | C=C[C@]1(C)C[C@@H](OC(=O)CNc2ccc3c(c2CN)B(O)OC3)[C@]2(C)[C@H](C)CC[C@]3(CCC(=O)[C@H]32)[C@@H](C)[C@@H]1O [Compound 49, (3aR,4R,5R,7S,8S,9R,9aS,12R)-8-hydroxy-4,7,9,12-tetramethyl-3-oxo-7-vinyldecahydro-4,9a-propanocyclopenta[8]annulen-5-yl (7-(aminomethyl)-1-hydroxy-1,3-dihydrobenzo[c][1,2]oxaborol-6-yl)glycinate] | 0.5 to 2 (≈ 0.929 to 3.71 µM) | 0.5 to 2 (≈ 0.929 to 3.71 µM) |  | 
10 | C=C[C@]1(C)C[C@@H](OC(=O)CNc2cc(CN)c3c(c2)B(O)OC3)[C@]2(C)[C@H](C)CC[C@]3(CCC(=O)[C@H]32)[C@@H](C)[C@@H]1O [Compound 50, (3aR,4R,5R,7S,8S,9R,9aS,12R)-8-hydroxy-4,7,9,12-tetramethyl-3-oxo-7-vinyldecahydro-4,9a-propanocyclopenta[8]annulen-5-yl (4-(aminomethyl)-1-hydroxy-1,3-dihydrobenzo[c][1,2]oxaborol-6-yl)glycinate] | 0.5 to 2 (≈ 0.929 to 3.71 µM) | < 0.25 |  | 
11 | C=C[C@]1(C)C[C@@H](OC(=O)COc2cc3c(cc2F)COB3O)[C@]2(C)[C@H](C)CC[C@]3(CCC(=O)[C@H]32)[C@@H](C)[C@@H]1O [Compound 3, (3aR,4R,5R,7S,8S,9R,9aS,12R)-8-hydroxy-4,7,9,12-tetramethyl-3-oxo-7-vinyldecahydro-4,9a-propanocyclopenta[8]annulen-5-yl 2-((5-fluoro-1-hydroxy-1,3-dihydrobenzo[c][1,2]oxaborol-6-yl)oxy)acetate] | < 0.25 | < 0.25 |  | 
12 | C=C[C@]1(C)C[C@@H](OC(=O)COc2cc(CN)c3c(c2)B(O)OC3)[C@]2(C)[C@H](C)CC[C@]3(CCC(=O)[C@H]32)[C@@H](C)[C@@H]1O.Cl [Compound 12, (3aR,4R,5R,7S,8S,9R,9aS,12R)-8-hydroxy-4,7,9,12-tetramethyl-3-oxo-7-vinyldecahydro-4,9a-propanocyclopenta[8]annulen-5-yl 2-((4-(aminomethyl)-1-hydroxy-1,3-dihydrobenzo[c][1,2]oxaborol-6-yl)oxy)acetate Hydrochloride] |  |  | < 0.25 | < 0.25
13 | C=C[C@]1(C)C[C@@H](OC(=O)COC(=O)Nc2ccc3c(c2F)B(O)OC3)[C@]2(C)[C@H](C)CC[C@]3(CCC(=O)[C@H]32)[C@@H](C)[C@@H]1O [Compound 55, (3aR,4R,5R,7S,8S,9R,9aS,12R)-8-hydroxy-4,7,9,12-tetramethyl-3-oxo-7-vinyldecahydro-4,9a-propanocyclopenta[8]annulen-5-yl 2-(((7-fluoro-1-hydroxy-1,3-dihydrobenzo[c][1,2]oxaborol-6-yl)carbamoyl)oxy)acetate] | 0.5 to 2 (≈ 0.875 to 3.5 µM) | 0.5 to 2 (≈ 0.875 to 3.5 µM) |  | 
14 | C=C[C@]1(C)C[C@@H](OC(=O)CNCc2ccc3c(c2)B(O)OC3(C)C)[C@]2(C)[C@H](C)CC[C@]3(CCC(=O)[C@H]32)[C@@H](C)[C@@H]1O [Compound 60, (3aR,4R,5R,7S,8S,9R,9aS,12R)-8-hydroxy-4,7,9,12-tetramethyl-3-oxo-7-vinyldecahydro-4,9a-propanocyclopenta[8]annulen-5-yl ((1-hydroxy-3,3-dimethyl-1,3-dihydrobenzo[c][1,2]oxaborol-6-yl)methyl)glycinate] | 0.5 to 2 (≈ 0.907 to 3.63 µM) | 4 to 32 (≈ 7.25 to 58 µM) |  | 
15 | C=C[C@]1(C)C[C@@H](OC(=O)NCc2ccc3c(c2)B(O)OC3)[C@]2(C)[C@H](C)CC[C@]3(CCC(=O)[C@H]32)[C@@H](C)[C@@H]1O [Compound 56, (3aR,4R,5R,7S,8S,9R,9aS,12R)-8-hydroxy-4,7,9,12-tetramethyl-3-oxo-7-vinyldecahydro-4,9a-propanocyclopenta[8]annulen-5-yl ((1-hydroxy-1,3-dihydrobenzo[c][1,2]oxaborol-6-yl)methyl) carbamate] |  |  | < 0.25 | 0.5 to 2 (≈ 0.981 to 3.93 µM)
16 | C=C[C@]1(C)C[C@@H](OC(=O)COc2ccc3c(c2)B(O)N(C(=O)OC)N=C3)[C@]2(C)[C@H](C)CC[C@]3(CCC(=O)[C@H]32)[C@@H](C)[C@@H]1O [Compound 91, Methyl 1-hydroxy-7-(2-(((3aR,4R,5R,7S,8S,9R,9aS,12R)-8-hydroxy-4,7,9,12-tetramethyl-3-oxo-7-vinyldecahydro-4,9a-propanocyclopenta[8]annulen-5-yl)oxy)-2-oxoethoxy)benzo[d][1,2,3]diazaborinine-2(1H)-carboxylate] | < 0.25 | 0.5 to 2 (≈ 0.861 to 3.45 µM) |  | 
